Assay type in all cases: biochemical
Assay [1] deals with Caspase-3 (Homo sapiens (Human), UniProt P42574). The assay can be described thus: Caspase-3 assay, inhibition of caspase activity. The settings on record: human caspase-3. The procedure:
(§1) Assay for the Inhibition of Caspase Activity and Determination of IC50 Values
(§2) Human caspases were purchased from Enzo Biosciences and used according to the manufacturer's instructions. An exemplary caspase assay, for Caspase-1, is provided below:
(§3) The data was graphed as OD405 nm vs time, and the slope was determined over the linear portion of the curve. The rates in OD/min were converted to substrate/min using an extinction coefficient for p-nitroaniline of 10,500 M-1 cm-1, and were adjusted for pathlength of sample. Similarly assays were conducted for Caspase-3, Caspase-8 and Caspase-9. The Table below provides a summary of the binding data for the compounds prepared according to Examples 1-4: […]

Assay [2] concerns the target Caspase-1 (Homo sapiens (Human), UniProt P29466). In words: Caspase-1 assay, inhibition of caspase activity (Ac-YVAD-pNA substrate). Particulars: human caspase-1, Ac-YVAD-pNA 200 μM, read at 405 nm. On the procedure:
as §1, §2
Caspase-1 was diluted to 10 U/μl in assay buffer consisting of 50 mM HEPES, pH 7.4, 100 mM NaCl, 0.1% CHAPS, 1 mM EDTA, 10% glycerol and 10 mM DTT.
45 μl of assay buffer was added into ½ volume microtiter plate. The plate was allowed to equilibrate to assay temperature. 5 μl of Caspase-1 (10 U/μl) was added to each appropriate well. Two 2 blank wells containing just assay buffer without Caspase-1 were included on the plate.
The reaction was started by the addition of 50 μl Ac-YVAD-pNA substrate, for a final substrate concentration of 200 μM. The reaction was continuously monitored at 405 nm.
as §3

Assay [3] addresses Caspase-9 (Homo sapiens (Human), UniProt P55211). The assay can be described thus: Caspase-9 assay, inhibition of caspase activity. The settings on record: human caspase-9. The procedure: as §1, §2, §3
In assay [4] the target is Caspase-8 (Homo sapiens (Human), UniProt Q14790). The assay can be described thus: Caspase-8 assay, inhibition of caspase activity. Particulars: human caspase-8. The procedure: as §1, §2, §3

Structures are written as SMILES.

Sequence of Caspase-3 (P42574 29-175): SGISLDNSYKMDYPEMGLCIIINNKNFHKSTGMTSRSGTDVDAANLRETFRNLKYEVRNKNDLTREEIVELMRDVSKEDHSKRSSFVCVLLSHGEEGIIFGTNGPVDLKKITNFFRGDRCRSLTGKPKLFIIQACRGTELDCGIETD
Sequence of Caspase-3 (P42574 176-277): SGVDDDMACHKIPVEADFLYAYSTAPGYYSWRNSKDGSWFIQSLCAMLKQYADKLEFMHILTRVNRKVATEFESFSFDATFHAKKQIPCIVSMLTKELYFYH
Sequence of Caspase-9 (P55211 1-315): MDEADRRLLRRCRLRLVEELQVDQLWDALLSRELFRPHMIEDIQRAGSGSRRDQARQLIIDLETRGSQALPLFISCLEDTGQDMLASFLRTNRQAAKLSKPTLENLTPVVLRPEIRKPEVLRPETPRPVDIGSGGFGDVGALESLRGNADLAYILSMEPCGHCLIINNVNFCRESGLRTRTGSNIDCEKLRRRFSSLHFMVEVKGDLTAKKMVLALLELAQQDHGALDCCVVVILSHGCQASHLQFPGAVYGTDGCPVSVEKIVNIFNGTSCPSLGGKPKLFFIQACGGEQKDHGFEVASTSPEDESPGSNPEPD
Sequence of Caspase-9 (P55211 331-416): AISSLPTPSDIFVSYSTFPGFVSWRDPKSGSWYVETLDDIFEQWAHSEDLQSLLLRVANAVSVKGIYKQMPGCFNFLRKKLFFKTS
Sequence of Caspase-8 (Q14790 217-374): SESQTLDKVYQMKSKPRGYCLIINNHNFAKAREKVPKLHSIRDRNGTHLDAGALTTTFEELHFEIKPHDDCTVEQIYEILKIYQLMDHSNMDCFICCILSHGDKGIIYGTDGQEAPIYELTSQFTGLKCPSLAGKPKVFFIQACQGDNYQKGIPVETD
Sequence of Caspase-8 (Q14790 385-479): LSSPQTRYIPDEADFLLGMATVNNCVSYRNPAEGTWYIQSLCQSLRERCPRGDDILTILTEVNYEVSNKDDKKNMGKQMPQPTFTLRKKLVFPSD
Sequence of Caspase-1 (P29466 120-297): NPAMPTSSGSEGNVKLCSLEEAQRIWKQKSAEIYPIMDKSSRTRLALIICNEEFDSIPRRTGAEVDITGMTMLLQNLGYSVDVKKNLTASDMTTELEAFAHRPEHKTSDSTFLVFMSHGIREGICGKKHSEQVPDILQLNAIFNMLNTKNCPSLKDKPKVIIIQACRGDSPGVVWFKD
Sequence of Caspase-1 (P29466 317-404): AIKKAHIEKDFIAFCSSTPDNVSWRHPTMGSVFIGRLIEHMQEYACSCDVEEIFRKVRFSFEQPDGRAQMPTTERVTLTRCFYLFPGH

For orientation: IC50 means the concentration at which inhibition is half-maximal. The low end stands for higher potency, the high end for lower potency. As for `O=C(O)C[C@H](NC(=O)CN1CCN(S(=O)(=O)c2ccccc2)CC1)C(=O)COc1c(F)c(F)cc(F)c1F` [Example 4, (S)-4-oxo-3-(2-(4-(phenylsulfonyl)piperazin-1-yl)acetamido)-5-(2,3,5,6-tetrafluorophenoxy)pentanoic acid], the IC50 in assay [1] worked out at 200 nM; in assay [2], 2 nM; in assay [3], 107 nM; in assay [4] it was 1 nM.

With `O=C(O)C[C@H](NC(=O)CN1CCN(Cc2ccccc2)C(=O)C1)C(=O)COc1c(F)c(F)cc(F)c1F` [Example 1, (S)-3-(2-(4-Benzyl-3-oxopiperazin-1-yl)acetamido)-4-oxo-5-(2,3,5,6-tetrafluorophenoxy)pentanoic acid], the half-inhibitory concentration (IC50) in assay [1] stood at 132 nM; in assay [2], 9 nM; in assay [3], 122 nM; in assay [4], 132 nM.

Take `O=C(O)C[C@H](NC(=O)CN1CCN(Cc2ccccc2)C(=O)C1)C(=O)COc1ccnc(C(F)(F)F)n1` [Example 3, (S)-3-(2-(4-Benzyl-3-oxopiperazin-1-yl)acetamido)-4-oxo-5-((2-(trifluoromethyl)pyrimidin-4-yl)oxy)pentanoic acid]: the IC50 was determined as 1000 nM in assay [1], 65 nM in assay [2], 1000 nM in assay [3] and 396 nM in assay [4].

As for `O=C(O)C[C@H](NC(=O)CN1CCN(Cc2ccccc2)CC1=O)C(=O)COc1c(F)c(F)cc(F)c1F` [Example 2, (S)-3-(2-(4-Benzyl-2-oxopiperazin-1-yl)acetamido)-4-oxo-5-(2,3,5,6-tetrafluorophenoxy)pentanoic acid], the concentration for half-maximal inhibition (IC50) in assay [1] was 32 nM; in assay [2], 4 nM; in assay [3] it was 38 nM; in assay [4] it was 28 nM.

The record behind these values is patent US11447497B2, “(S)-3-(2-(4-(benzyl)-3-oxopiperazin-1-yl)acetamido)-4-oxo-5-(2,3,5,6-tetrafluorophenoxy)pentanoic acid derivatives and related compounds as caspase inhibitors for treating cardiovascular diseases” (HISTOGEN, INC., priority 2018, dated 2022).
